Measurements as given in article PMC3343204 (Clinical Cancer Research, 2012).

Assays:
MPNST cells = experiment: Colony formation assay; type: cell-based, human; details: for IC50: Homo sapiens, 24 h
[1] = Flavopiridol plasma pharmacokinetics in phase I trial; type: in vivo, human
CDK6 = details: cited from earlier work
[2] = test system: dedifferentiated liposarcoma cell lines, with amplified CDK4; experiment: Sensitivity of liposarcoma cell lines; type: cell-based, human; details: prior observations, data not shown
CDK2 = details: cited from earlier work
[3] = human plasma; cited from earlier work
CDK4 = details: cited from earlier work
[4] = patients, cited from earlier work
CDK9 = details: cited from earlier work

| Compound | IC50 (MPNST cells) | time point at which Cmax was observed ([1]; first time point analyzed in each schedule) | Cmax ([1]; human, plasma, intravenous, Mean Cmax, cycle 1, cohort 8 (doxorubicin 60, flavopiridol 90 (50/40) mg/m^2), n 4) | inhibition of CDK6 (CDK6) | sensitivity to flavopiridol [2] | inhibition of CDK2 (CDK2) | colony formation (percentage of untreated controls) (MPNST cells; MPNST cells, flavopiridol alone 150 nM 24 hours, colonies after 10 days) | protein binding in plasma [3] | inhibition of CDK4 (CDK4) | MTD, single agent bolus schedule ([4]; approximate) | MTD, single agent divided dose flavopiridol therapy ([4]; bolus followed by infusion) | inhibition of CDK9 (CDK9) |
| --- | --- | --- | --- | --- | --- | --- | --- | --- | --- | --- | --- | --- |
| COc1cccc2c1C(=O)c1c(O)c3c(c(O)c1C2=O)C[C@@](O)(C(=O)CO)C[C@@H]3O[C@H]1C[C@H](N)[C@H](O)[C@H](C)O1 [doxorubicin] | 15 nM |  |  |  |  |  |  |  |  |  |  |  |
| CN1CC[C@H](c2c(O)cc(O)c3c(=O)cc(-c4ccccc4Cl)oc23)[C@H](O)C1 [flavopiridol] | 150 nM | 0.5 h | 3.33 µM | nanomolar concentrations | highly sensitive | nanomolar concentrations | 59% | 90% | nanomolar concentrations | ~70 mg/m^2 | 90 mg/m^2 | nanomolar concentrations |
